Data published in article PMC4256409, “Role of Phenylalanine and Valine^10 Residues in the Antimicrobial Activity and Cytotoxicity of Piscidin-1” (PLoS ONE, 2014).
Where no end group is shown, it is not given here.

Key:
E. coli KCTC1682 = type: cell-based, Escherichia coli; settings: KCTC1682, 16 h
E. coli KCTC2593 = type: cell-based, Escherichia coli; settings: KCTC2593, 16 h
E.coli KCTC2571 = type: cell-based, Escherichia coli; settings: KCTC2571, 16 h
P. aeruginosa KCTC1637 = type: cell-based, Pseudomonas aeruginosa; settings: KCTC1637, 16 h
P. aeruginosa KCTC2004 = type: cell-based, Pseudomonas aeruginosa; settings: KCTC2004, 16 h
P. aeruginosa KCTC2513 = type: cell-based, Pseudomonas aeruginosa; settings: KCTC2513, 16 h
S. typhimurium KCTC1926 = type: cell-based, Salmonella typhimurium; settings: KCTC1926, 16 h
B. subtilis KCTC3068 = type: cell-based, Bacillus subtilis; settings: KCTC3068, 16 h
B. subtilis KCTC1021 = type: cell-based, Bacillus subtilis; settings: KCTC1021, 16 h
B. subtilis KCTC1022 = type: cell-based, Bacillus subtilis; settings: KCTC1022, 16 h
S. epidermidis KCTC1917 = type: cell-based, Staphylococcus epidermidis; settings: KCTC1917, 16 h
S. aureus KCTC1621 = type: cell-based, Staphylococcus aureus; settings: KCTC1621, 16 h
S. aureus KCTC1916 = type: cell-based, Staphylococcus aureus; settings: KCTC1916, 16 h
S. aureus KCTC3881 = type: cell-based, Staphylococcus aureus; settings: KCTC3881, 16 h
MRSA CCARM3089 = type: cell-based, Methicillin-resistant S. aureus; settings: CCARM3089, 16 h
MRSA CCARM 3090 = type: cell-based, Methicillin-resistant S. aureus; settings: CCARM 3090, 16 h
MRSA CCARM 3108 = type: cell-based, Methicillin-resistant S. aureus; settings: CCARM 3108, 16 h
MRSA CCARM 3114 = type: cell-based, Methicillin-resistant S. aureus; settings: CCARM 3114, 16 h
MRSA CCARM 3126 = type: cell-based, Methicillin-resistant S. aureus; settings: CCARM 3126, 16 h
MDRST CCARM 8003 = type: cell-based, multidrug-resistant S. typhimurium; settings: broth microdilution, 37°C, 16 h, three independent experiments in triplicate, SD 14.0%
MDRST CCARM 8007 = type: cell-based, multidrug-resistant S. typhimurium; settings: broth microdilution, 37°C, 16 h, three independent experiments in triplicate, SD 14.0%
MDRST CCARM 8009 = type: cell-based, multidrug-resistant S. typhimurium; settings: broth microdilution, 37°C, 16 h, three independent experiments in triplicate, SD 14.0%
MDREC CCARM 1229 = type: cell-based, multidrug-resistant E. coli; settings: broth microdilution, 37°C, 16 h, three independent experiments in triplicate, SD 14.0%
MDREC CCARM 1238 = type: cell-based, multidrug-resistant E. coli; settings: broth microdilution, 37°C, 16 h, three independent experiments in triplicate, SD 14.0%
MDRAB CCARM 12005 = type: cell-based, multidrug-resistant Acinetobacter baumanii; settings: broth microdilution, 37°C, 16 h, three independent experiments in triplicate, SD 14.0%
MDRAB CCARM 12035 = type: cell-based, multidrug-resistant Acinetobacter baumanii; settings: broth microdilution, 37°C, 16 h, three independent experiments in triplicate, SD 14.0%
MDRAB CCARM 12036 = type: cell-based, multidrug-resistant Acinetobacter baumanii; settings: broth microdilution, 37°C, 16 h, three independent experiments in triplicate, SD 14.0%
MDRAB CCARM 12037 = type: cell-based, multidrug-resistant Acinetobacter baumanii; settings: broth microdilution, 37°C, 16 h, three independent experiments in triplicate, SD 14.0%
MDRPA CCARM 2002 = type: cell-based, multidrug-resistant P. aeruginosa; settings: broth microdilution, 37°C, 16 h, three independent experiments in triplicate, SD 14.0%
MDRPA CCARM 2003 = type: cell-based, multidrug-resistant P. aeruginosa; settings: broth microdilution, 37°C, 16 h, three independent experiments in triplicate, SD 14.0%
MDRPA CCARM 2095 = type: cell-based, multidrug-resistant P. aeruginosa; settings: broth microdilution, 37°C, 16 h, three independent experiments in triplicate, SD 14.0%
MDRPA CCARM 2163 = type: cell-based, multidrug-resistant P. aeruginosa; settings: broth microdilution, 37°C, 16 h, three independent experiments in triplicate, SD 14.0%
[1] = test system: Standard bacterial strains; type: cell-based; settings: average over the 14 standard bacterial strains of Table 2
[2] = test system: Drug-resistant bacterial strains; settings: average over the 18 drug-resistant bacterial strains of Table 3
Excerpt: Escherichia coli KCTC 1682, E. coli KCTC 2593, E. coli KCTC 2571, Salmonella typhimurium KCTC 1926, Pseudomonas aeruginosa KCTC 1637, P. aeruginosa KCTC 2004, P. aeruginosa KCTC 2513, Bacillus subtilis KCTC 3068, B. subtilis KCTC 1021, B. subtilis KCTC 1022, Staphylococcus epidermidis KCTC 1917, Staphylococcus aureus KCTC 1621, S. aureus KCTC 1916, and S. aureus KCTC 3881 were purchased from the Korean Collection for Type Cultures, Korea Research Institute of Bioscience & Biotechnology (Taejon, Korea). Methicillin-resistant S. aureus (MRSA) (CCARM 3089, CCARM 3090, CCARM 3108, CCARM 3114, and CCARM 3126), multidrug-resistant E. coli (MDREC) (CCARM 1229 and CCARM 1238), multidrug-resistant S. typhimurium (MDRST) (CCARM 8003, CCARM 8007, and CCARM 8009), multidrug-resistant Acinetobacter baumanii (MDRAB) (CCARM 12005, CCARM 12035, CCARM 12036, CCARM 12037), and multidrug-resistant P. aeruginosa (MDRPA) (CCARM 2002, CCARM 2003, CCARM 2095, and CCARM 2163) were obtained from the Culture Collection of Antibiotic-Resistant Microbes (CCARM) at Seoul Women’s University in Korea. The antimicrobial activities of the peptides against selected organisms, including three Gram-positive, three Gram-negative, and five antibiotic-resistant bacteria, were determined using a broth microdilution assay. Briefly, single colonies of bacteria and fungi were inoculated into Luria-Bertani (LB) medium and cultured overnight at 37°C. An aliquot of the culture was transferred to 10 mL of fresh LB and incubated for an additional 3–5 h at 37°C until it reached the mid-logarithmic phase. Two-fold serial dilutions of the peptides in 1% peptone were prepared. The serial dilutions (100 µL) were added to 100 µL of cells (2×10^6 colony-forming units (CFU)/mL) in 96-well microtiter plates and incubated at 37°C for 16 h. […] MIC values were calculated as the average of triplicate measurements from three independent assays.

Sequence | MIC (E. coli KCTC1682) [µM] | MIC (E. coli KCTC2593) [µM] | MIC (E.coli KCTC2571) [µM] | MIC (P. aeruginosa KCTC1637) [µM] | MIC (P. aeruginosa KCTC2004) [µM] | MIC (P. aeruginosa KCTC2513) [µM] | MIC (S. typhimurium KCTC1926) [µM] | MIC (B. subtilis KCTC3068) [µM] | MIC (B. subtilis KCTC1021) [µM] | MIC (B. subtilis KCTC1022) [µM] | MIC (S. epidermidis KCTC1917) [µM] | MIC (S. aureus KCTC1621) [µM] | MIC (S. aureus KCTC1916) [µM] | MIC (S. aureus KCTC3881) [µM] | MIC (MRSA CCARM3089) [µM] | MIC (MRSA CCARM 3090) [µM] | MIC (MRSA CCARM 3108) [µM] | MIC (MRSA CCARM 3114) [µM] | MIC (MRSA CCARM 3126) [µM] | MIC (MDRST CCARM 8003) [µM] | also measured
FFHHIKRGIVHVGKTIHRLVTG [Pis-F6K] | 4.0 | 2.0 | 4.0 | 8.0 | 8.0 | 8.0 | 8.0 | 4.0 | 4.0 | 1.0 | 2.0 | 4.0 | 4.0 | 4.0 | 16 | 16 | 16 | 16 | 16 | 16 | MIC (MDRST CCARM 8007): 16 µM; MIC (MDRST CCARM 8009): 16 µM; MIC (MDREC CCARM 1229): 16 µM; MIC (MDREC CCARM 1238): 16 µM; MIC (MDRAB CCARM 12005): 4.0 µM; MIC (MDRAB CCARM 12035): 4.0 µM; MIC (MDRAB CCARM 12036): 4.0 µM; MIC (MDRAB CCARM 12037): 4.0 µM; MIC (MDRPA CCARM 2002): 4.0 µM; MIC (MDRPA CCARM 2003): 4.0 µM; MIC (MDRPA CCARM 2095): 4.0 µM; MIC (MDRPA CCARM 2163): 4.0 µM; Average MIC [1]: 4.6 µM; Average MIC [2]: 11 µM
FKHHIFRGIKHVGKTIHRLVTG [Pis-F2K/V10K] | 1.0 | 4.0 | 4.0 | 1.0 | 8.0 | 8.0 | 2.0 | 2.0 | 8.0 | 4.0 | 4.0 | 2.0 | 4.0 | 4.0 | 8.0 | 8.0 | 8.0 | 8.0 | 8.0 | 16 | MIC (MDRST CCARM 8007): 8.0 µM; MIC (MDRST CCARM 8009): 8.0 µM; MIC (MDREC CCARM 1229): 8.0 µM; MIC (MDREC CCARM 1238): 8.0 µM; MIC (MDRAB CCARM 12005): 2.0 µM; MIC (MDRAB CCARM 12035): 2.0 µM; MIC (MDRAB CCARM 12036): 2.0 µM; MIC (MDRAB CCARM 12037): 2.0 µM; MIC (MDRPA CCARM 2002): 2.0 µM; MIC (MDRPA CCARM 2003): 2.0 µM; MIC (MDRPA CCARM 2095): 2.0 µM; MIC (MDRPA CCARM 2163): 2.0 µM; Average MIC [1]: 4.0 µM; Average MIC [2]: 5.8 µM
FKHHIFRGIVHVGKTIHRLVTG [Pis-F2K] | 4.0 | 2.0 | 2.0 | 4.0 | 8.0 | 8.0 | 8.0 | 4.0 | 4.0 | 1.0 | 2.0 | 4.0 | 2.0 | 2.0 | 16 | 16 | 16 | 16 | 16 | 16 | MIC (MDRST CCARM 8007): 16 µM; MIC (MDRST CCARM 8009): 16 µM; MIC (MDREC CCARM 1229): 16 µM; MIC (MDREC CCARM 1238): 16 µM; MIC (MDRAB CCARM 12005): 2.0 µM; MIC (MDRAB CCARM 12035): 2.0 µM; MIC (MDRAB CCARM 12036): 2.0 µM; MIC (MDRAB CCARM 12037): 2.0 µM; MIC (MDRPA CCARM 2002): 2.0 µM; MIC (MDRPA CCARM 2003): 2.0 µM; MIC (MDRPA CCARM 2095): 2.0 µM; MIC (MDRPA CCARM 2163): 2.0 µM; Average MIC [1]: 3.9 µM; Average MIC [2]: 9.8 µM
KFHHIFRGIKHVGKTIHRLVTG [Pis-F1K/V10K] | 1.0 | 2.0 | 2.0 | 1.0 | 2.0 | 2.0 | 1.0 | 1.0 | 4.0 | 2.0 | 1.0 | 2.0 | 2.0 | 2.0 | 4.0 | 4.0 | 4.0 | 8.0 | 4.0 | 8.0 | MIC (MDRST CCARM 8007): 8.0 µM; MIC (MDRST CCARM 8009): 8.0 µM; MIC (MDREC CCARM 1229): 4.0 µM; MIC (MDREC CCARM 1238): 4.0 µM; MIC (MDRAB CCARM 12005): 2.0 µM; MIC (MDRAB CCARM 12035): 2.0 µM; MIC (MDRAB CCARM 12036): 2.0 µM; MIC (MDRAB CCARM 12037): 2.0 µM; MIC (MDRPA CCARM 2002): 2.0 µM; MIC (MDRPA CCARM 2003): 2.0 µM; MIC (MDRPA CCARM 2095): 2.0 µM; MIC (MDRPA CCARM 2163): 2.0 µM; Average MIC [1]: 1.8 µM; Average MIC [2]: 4.0 µM
KFHHIFRGIVHVGKTIHRLVTG [Pis-F1K] | 4.0 | 2.0 | 2.0 | 4.0 | 4.0 | 4.0 | 4.0 | 2.0 | 2.0 | 1.0 | 2.0 | 2.0 | 2.0 | 2.0 | 8.0 | 8.0 | 8.0 | 8.0 | 8.0 | 4.0 | MIC (MDRST CCARM 8007): 4.0 µM; MIC (MDRST CCARM 8009): 4.0 µM; MIC (MDREC CCARM 1229): 8.0 µM; MIC (MDREC CCARM 1238): 8.0 µM; MIC (MDRAB CCARM 12005): 2.0 µM; MIC (MDRAB CCARM 12035): 2.0 µM; MIC (MDRAB CCARM 12036): 2.0 µM; MIC (MDRAB CCARM 12037): 2.0 µM; MIC (MDRPA CCARM 2002): 2.0 µM; MIC (MDRPA CCARM 2003): 2.0 µM; MIC (MDRPA CCARM 2095): 2.0 µM; MIC (MDRPA CCARM 2163): 2.0 µM; Average MIC [1]: 2.6 µM; Average MIC [2]: 4.7 µM
